Measurements from PubChem BioAssay AID256 (DTP/NCI, 2004).
Several values for one entry are separate records, joined by “and”; a condition that tells them apart may be missing. Identical values can stand only once. Inconclusive results and toxic doses are left out. How the source made its calls: active means survival T/C of 150% or more; inactive means T/C below 125% in these data.

Test system: CD2F1 mice, L1210 leukemia ip, survival T/C
Assay: NCI In Vivo Anticancer Drug Screen. Data for tumor model L1210 Leukemia (intraperitoneal) in CD2F1 (CDF1) mice
Details: higher = longer survival
In short: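 Antitumor effect is scored in animals hosting a serially transplanted tumor. Values compare compound-dosed animals against vehicle-only controls as a simple quotient.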

Measured: T/C

C1CN1c1nc(N2CC2)nc(N2CC2)n1
215 % of control and 100 % of control: endpoint: mean survival time, dose: 0.12 mg/kg/injection, schedule: Q01DX009 (ip), vehicle: saline
active: endpoint: mean survival time, dose: 0.06 mg/kg/injection, schedule: Q01DX009 (ip), vehicle: saline 150 % of control | endpoint: mean survival time, dose: 0.25 mg/kg/injection, schedule: Q03HX024 (ip), vehicle: saline 174 % of control | endpoint: mean survival time, dose: 0.4 mg/kg/injection, schedule: Q01DX009 (ip), vehicle: saline 155 % of control | endpoint: mean survival time, dose: 0.5 mg/kg/injection, schedule: Q01DX005 (ip), vehicle: saline 150 % of control | endpoint: mean survival time, dose: 0.5 mg/kg/injection, schedule: Q01DX007 (ip), vehicle: saline 183 % of control | endpoint: mean survival time, dose: 0.5 mg/kg/injection, schedule: Q03HX008 (ip), vehicle: saline 185 % of control | endpoint: mean survival time, dose: 0.5 mg/kg/injection, schedule: Q03HX016 (ip), vehicle: saline 183 % of control | endpoint: mean survival time, dose: 1.0 mg/kg/injection, schedule: Q01DX001 (ip), vehicle: saline 190 % of control | endpoint: mean survival time, dose: 1.0 mg/kg/injection, schedule: Q03DX003 (ip), vehicle: saline 183 % of control | endpoint: mean survival time, dose: 1.0 mg/kg/injection, schedule: Q08DX002 (ip), vehicle: saline 204 % of control | endpoint: mean survival time, dose: 2.0 mg/kg/injection, schedule: Q01DX001 (ip), vehicle: saline 154 % of control and 157 % of control | endpoint: mean survival time, dose: 2.0 mg/kg/injection, schedule: Q03DX003 (ip), vehicle: saline 211 % of control | endpoint: mean survival time, dose: 2.0 mg/kg/injection, schedule: Q08DX002 (ip), vehicle: saline 184 % of control | endpoint: mean survival time, dose: 3.0 mg/kg/injection, schedule: Q01DX001 (ip), vehicle: saline 169 % of control and 338 % of control | endpoint: mean survival time, dose: 4.0 mg/kg/injection, schedule: Q11DX002 (ip), vehicle: saline 153 % of control | endpoint: mean survival time, dose: 125.0 micrograms/kg/injection, schedule: Q01DX009 (ip), vehicle: saline 173 % of control | endpoint: median survival time, dose: 0.5 mg/kg/injection, schedule: Q01DX009 (ip), vehicle: saline 150 % of control and 185 % of control
inactive: endpoint: mean survival time, dose: 0.05 mg/kg/injection, schedule: Q01DX009 (ip), vehicle: saline 100 % of control | endpoint: mean survival time, dose: 0.06 mg/kg/injection, schedule: Q03HX008 (ip), vehicle: saline 100 % of control | endpoint: mean survival time, dose: 0.06 mg/kg/injection, schedule: Q03HX016 (ip), vehicle: saline 95 % of control and 97 % of control | endpoint: mean survival time, dose: 0.06 mg/kg/injection, schedule: Q03HX024 (ip), vehicle: saline 113 % of control | endpoint: mean survival time, dose: 0.1 mg/kg/injection, schedule: Q01DX009 (ip), vehicle: saline 107 % of control | endpoint: mean survival time, dose: 0.13 mg/kg/injection, schedule: Q03HX008 (ip), vehicle: saline 110 % of control | endpoint: mean survival time, dose: 0.13 mg/kg/injection, schedule: Q03HX016 (ip), vehicle: saline 104 % of control and 110 % of control | endpoint: mean survival time, dose: 0.13 mg/kg/injection, schedule: Q03HX024 (ip), vehicle: saline 124 % of control | endpoint: mean survival time, dose: 0.2 mg/kg/injection, schedule: Q01DX009 (ip), vehicle: saline 117 % of control | endpoint: mean survival time, dose: 0.25 mg/kg/injection, schedule: Q01DX005 (ip), vehicle: saline 117 % of control | endpoint: mean survival time, dose: 0.25 mg/kg/injection, schedule: Q01DX009 (ip), vehicle: saline 109 % of control | endpoint: mean survival time, dose: 0.5 mg/kg/injection, schedule: Q01DX001 (ip), vehicle: saline 114 % of control | endpoint: mean survival time, dose: 0.5 mg/kg/injection, schedule: Q03HX024 (ip), vehicle: saline 101 % of control | endpoint: mean survival time, dose: 0.5 mg/kg/injection, schedule: Q08DX002 (ip), vehicle: saline 107 % of control | endpoint: mean survival time, dose: 0.5 mg/kg/injection, schedule: Q11DX002 (ip), vehicle: saline 100 % of control | endpoint: mean survival time, dose: 1.0 mg/kg/injection, schedule: Q01DX005 (ip), vehicle: saline 86 % of control | endpoint: mean survival time, dose: 1.0 mg/kg/injection, schedule: Q01DX007 (ip), vehicle: saline 92 % of control | endpoint: mean survival time, dose: 1.0 mg/kg/injection, schedule: Q11DX002 (ip), vehicle: saline 97 % of control | endpoint: mean survival time, dose: 2.0 mg/kg/injection, schedule: Q11DX002 (ip), vehicle: saline 100 % of control | endpoint: mean survival time, dose: 4.0 mg/kg/injection, schedule: Q01DX001 (ip), vehicle: saline 120 % of control | endpoint: mean survival time, dose: 4.0 mg/kg/injection, schedule: Q08DX002 (ip), vehicle: saline 102 % of control | endpoint: mean survival time, dose: 62.0 micrograms/kg/injection, schedule: Q01DX009 (ip), vehicle: saline 123 % of control | endpoint: median survival time, dose: 0.25 mg/kg/injection, schedule: Q01DX009 (ip), vehicle: saline 100 % of control | endpoint: median survival time, dose: 1.0 mg/kg/injection, schedule: Q01DX009 (ip), vehicle: saline 121 % of control and 100 % of control

Clc1ccc(CN2CN(Cc3ccc(Cl)cc3)CN(Cc3ccc(Cl)cc3)C2)cc1
inactive: endpoint: mean survival time, dose: 100.0 mg/kg/injection, schedule: Q01DX009 (ip), vehicle: saline with Tween-80 95 % of control | endpoint: mean survival time, dose: 100.0 mg/kg/injection, schedule: Q04DX003 (ip), vehicle: saline with Tween-80 100 % of control | endpoint: mean survival time, dose: 200.0 mg/kg/injection, schedule: Q01DX009 (ip), vehicle: saline with Tween-80 97 % of control | endpoint: mean survival time, dose: 200.0 mg/kg/injection, schedule: Q04DX003 (ip), vehicle: saline with Tween-80 97 % of control | endpoint: mean survival time, dose: 400.0 mg/kg/injection, schedule: Q01DX009 (ip), vehicle: saline with Tween-80 100 % of control | endpoint: mean survival time, dose: 400.0 mg/kg/injection, schedule: Q04DX003 (ip), vehicle: saline with Tween-80 97 % of control

COC(=O)C1(C)CCCC2(C)C3CCC(C)(CCO)CC3C(O)CC12 (configuration not stated)
inactive: endpoint: mean survival time, dose: 100.0 mg/kg/injection, schedule: Q01DX001 (ip), vehicle: saline sonified 102 % of control | endpoint: mean survival time, dose: 100.0 mg/kg/injection, schedule: Q01DX001 (ip), vehicle: saline with Tween-80 96 % of control | endpoint: mean survival time, dose: 200.0 mg/kg/injection, schedule: Q01DX001 (ip), vehicle: saline sonified 101 % of control | endpoint: mean survival time, dose: 200.0 mg/kg/injection, schedule: Q01DX001 (ip), vehicle: saline with Tween-80 101 % of control | endpoint: mean survival time, dose: 400.0 mg/kg/injection, schedule: Q01DX001 (ip), vehicle: saline sonified 93 % of control | endpoint: mean survival time, dose: 400.0 mg/kg/injection, schedule: Q01DX001 (ip), vehicle: saline with Tween-80 105 % of control

CO[C@@H](C=O)O[C@@H](C=O)CO
inactive: endpoint: mean survival time, dose: 70.0 mg/kg/injection, schedule: Q01DX001 (ip), vehicle: saline 121 % of control | endpoint: mean survival time, dose: 140.0 mg/kg/injection, schedule: Q01DX001 (ip), vehicle: saline 121 % of control

O=C(Nc1ccc(C2=NCCN2)cc1)c1cc(Cl)cc(C(=O)Nc2ccc(C3=NCCN3)cc2)c1
inactive: endpoint: mean survival time, dose: 62.5 mg/kg/injection, schedule: Q01DX009 (ip), vehicle: saline 101 % of control and 104 % of control | endpoint: mean survival time, dose: 125.0 mg/kg/injection, schedule: Q01DX009 (ip), vehicle: saline 101 % of control and 103 % of control | endpoint: mean survival time, dose: 250.0 mg/kg/injection, schedule: Q01DX009 (ip), vehicle: saline 107 % of control and 108 % of control | endpoint: mean survival time, dose: 500.0 mg/kg/injection, schedule: Q01DX009 (ip), vehicle: saline 115 % of control and 110 % of control

COc1ccc(/C=C/c2cc[n+](C)cc2)cc1
inactive: endpoint: mean survival time, dose: 12.5 mg/kg/injection, schedule: Q01DX009 (ip), vehicle: saline 102 % of control | endpoint: mean survival time, dose: 25.0 mg/kg/injection, schedule: Q01DX009 (ip), vehicle: saline 95 % of control
